From PubChem BioAssay AID2060486 (Molecular Pharmacology Branch, DTP, NCI, 2025)
pIC50: −log10 of the molar value.

Test system: IGROV1 complex spheroids (HUVEC, MSC), viability % test/control
Assay: Anticancer human tumor IGROV1 cell line growth inhibition [GQUAD];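 further: spheroids exposed to compounds for 7 days before readout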;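 on viability, T/C: 100% = DMSO vehicle control viability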
Conditions: for pIC50: curve of first compound; for viability, T/C: stronger effect = lower value
Outline: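 Multi-cell-type spheroids of tumor cells with HUVEC and mesenchymal stem cells, treated with drug combinations. Concentrations descend in half-log steps from near clinical Cmax, or from 10 microM where Cmax is unknown; viability read-out.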

[1] = second compound 0.0316 µM, first compound 0.0316 µM
[2] = second compound 0.0316 µM, first compound 0.1 µM
[3] = second compound 0.0316 µM, first compound 0.316 µM
[4] = second compound 0.0316 µM, first compound 1 µM
[5] = second compound 0.0316 µM, first compound 3.16 µM
[6] = second compound 0.0316 µM, first compound 10 µM
[7] = second compound 0.1 µM, first compound 0.0316 µM
[8] = second compound 0.1 µM, first compound 0.1 µM
[9] = second compound 0.1 µM, first compound 0.316 µM
[10] = second compound 0.1 µM, first compound 1 µM
[11] = second compound 0.1 µM, first compound 3.16 µM
[12] = second compound 0.1 µM, first compound 10 µM
[13] = second compound 0.316 µM, first compound 0.0316 µM
[14] = second compound 0.316 µM, first compound 0.1 µM
[15] = second compound 0.316 µM, first compound 0.316 µM
[16] = second compound 0.316 µM, first compound 1 µM
[17] = second compound 0.316 µM, first compound 3.16 µM
[18] = second compound 0.316 µM, first compound 10 µM
[19] = second compound 1 µM, first compound 0.0316 µM
[20] = second compound 1 µM, first compound 0.1 µM
[21] = second compound 1 µM, first compound 0.316 µM
[22] = second compound 1 µM, first compound 1 µM
[23] = second compound 1 µM, first compound 3.16 µM
[24] = second compound 1 µM, first compound 10 µM
[25] = second compound 3.16 µM, first compound 0.0316 µM
[26] = second compound 3.16 µM, first compound 0.1 µM
[27] = second compound 3.16 µM, first compound 0.316 µM
[28] = second compound 3.16 µM, first compound 1 µM
[29] = second compound 3.16 µM, first compound 3.16 µM
[30] = second compound 3.16 µM, first compound 10 µM
[31] = second compound 10 µM, first compound 0.0316 µM
[32] = second compound 10 µM, first compound 0.1 µM
[33] = second compound 10 µM, first compound 0.316 µM
[34] = second compound 10 µM, first compound 1 µM
[35] = second compound 10 µM, first compound 3.16 µM
[36] = second compound 10 µM, first compound 10 µM

`COc1cccc2c1C(=O)c1c(O)c3c(c(O)c1C2=O)CC(O)(C(=O)CO)CC3OC1CC(N)C(O)C(C)O1` (stereo unspecified) + Cc1[nH]c2ccc(F)cc2c1-c1nc2c3cccnc3c3ncccc3c2[nH]1 showed a pIC50 (second compound 0.0316 µM) of 7.24, a pIC50 (second compound 0.1 µM) of 7.34 and a pIC50 (second compound 0.316 µM) greater than 7.50. For the same compound, the pIC50 (second compound 1 µM) was greater than 7.50, the pIC50 (second compound 3.16 µM) was greater than 7.50 and the pIC50 (second compound 10 µM) was greater than 7.50. It also gave a viability, T/C [1] of 77.6%, a viability, T/C [2] of 24.5% and a viability, T/C [3] of 9.18%. The viability, T/C [4] was 3.35%, the viability, T/C [5] was 0.15% and the viability, T/C [6] was 0.53%. The viability, T/C [7] was 62.3%, the viability, T/C [8] was 23.6% and the viability, T/C [9] was 10.5%. The viability, T/C [10] was 4.39%, the viability, T/C [11] was 0.11% and the viability, T/C [12] was 0.5%. For the same compound, the viability, T/C [13] was 34.7%, the viability, T/C [14] was 21.4% and the viability, T/C [15] was 7.11%. It also gave a viability, T/C [16] of 4.13%, a viability, T/C [17] of 0.18% and a viability, T/C [18] of 0.43%. The viability, T/C [19] was 4.23%, the viability, T/C [20] was 5.09% and the viability, T/C [21] was 3.51%. For the same compound, the viability, T/C [22] was 1.63%, the viability, T/C [23] was 0.1% and the viability, T/C [24] was 0.52%. For the same compound, the viability, T/C [25] was 3.48%, the viability, T/C [26] was 5.09% and the viability, T/C [27] was 3.34%. It also gave a viability, T/C [28] of 1.41%, a viability, T/C [29] of 0.08% and a viability, T/C [30] of 0.36%. For the same compound, the viability, T/C [31] was 4.02%, the viability, T/C [32] was 3.99% and the viability, T/C [33] was 2.84%. For the same compound, the viability, T/C [34] was 1.32%, the viability, T/C [35] was 0.18% and the viability, T/C [36] was 0.42%.

Compound `Nc1ccn(C2OC(CO)C(O)C2(F)F)c(=O)n1` (stereo unspecified) + Cc1[nH]c2ccc(F)cc2c1-c1nc2c3cccnc3c3ncccc3c2[nH]1 has a pIC50 (second compound 0.0316 µM) greater than 7.50, a pIC50 (second compound 0.1 µM) greater than 7.50 and a pIC50 (second compound 0.316 µM) greater than 7.50. The pIC50 (second compound 1 µM) was greater than 7.50, the pIC50 (second compound 3.16 µM) was greater than 7.50 and the pIC50 (second compound 10 µM) was greater than 7.50. It also gave a viability, T/C [1] of 10.5%, a viability, T/C [2] of 6.29% and a viability, T/C [3] of 5.85%. For the same compound, the viability, T/C [4] was 6.52%, the viability, T/C [5] was 6.69% and the viability, T/C [6] was 5.57%. It also gave a viability, T/C [7] of 18%, a viability, T/C [8] of 6.64% and a viability, T/C [9] of 5.87%. It also gave a viability, T/C [10] of 5.31%, a viability, T/C [11] of 5.55% and a viability, T/C [12] of 6.59%. It also gave a viability, T/C [13] of 11.5%, a viability, T/C [14] of 6.38% and a viability, T/C [15] of 6.31%. The viability, T/C [16] was 6.72%, the viability, T/C [17] was 6.12% and the viability, T/C [18] was 5.22%. For the same compound, the viability, T/C [19] was 4.26%, the viability, T/C [20] was 5% and the viability, T/C [21] was 3.88%. It also gave a viability, T/C [22] of 3.77%, a viability, T/C [23] of 3.84% and a viability, T/C [24] of 3.25%. It also gave a viability, T/C [25] of 5.06%, a viability, T/C [26] of 4.43% and a viability, T/C [27] of 3.62%. The viability, T/C [28] was 4.5%, the viability, T/C [29] was 4.02% and the viability, T/C [30] was 2.81%. It also gave a viability, T/C [31] of 3.58%, a viability, T/C [32] of 4.69% and a viability, T/C [33] of 4.1%. For the same compound, the viability, T/C [34] was 4.26%, the viability, T/C [35] was 3.44% and the viability, T/C [36] was 2.86%.

For `O=c1[nH]cc(F)c(=O)[nH]1` + Cc1[nH]c2ccc(F)cc2c1-c1nc2c3cccnc3c3ncccc3c2[nH]1, the pIC50 (second compound 0.0316 µM) was 5.17, the pIC50 (second compound 0.1 µM) was 5.26 and the pIC50 (second compound 0.316 µM) was 5.40. It also gave a pIC50 (second compound 1 µM) greater than 7.50, a pIC50 (second compound 3.16 µM) greater than 7.50 and a pIC50 (second compound 10 µM) greater than 7.50. The viability, T/C [1] was 104%, the viability, T/C [2] was 83.6% and the viability, T/C [3] was 103%. For the same compound, the viability, T/C [4] was 80.3%, the viability, T/C [5] was 82.6% and the viability, T/C [6] was 34.5%. It also gave a viability, T/C [7] of 96.1%, a viability, T/C [8] of 104% and a viability, T/C [9] of 84%. For the same compound, the viability, T/C [10] was 69.5%, the viability, T/C [11] was 80.8% and the viability, T/C [12] was 27.8%. For the same compound, the viability, T/C [13] was 79.6%, the viability, T/C [14] was 67.5% and the viability, T/C [15] was 77.1%. For the same compound, the viability, T/C [16] was 70.8%, the viability, T/C [17] was 55.4% and the viability, T/C [18] was 24.3%. For the same compound, the viability, T/C [19] was 5.37%, the viability, T/C [20] was 4.95% and the viability, T/C [21] was 4.49%. For the same compound, the viability, T/C [22] was 4.87%, the viability, T/C [23] was 5.05% and the viability, T/C [24] was 5.26%. For the same compound, the viability, T/C [25] was 4.5%, the viability, T/C [26] was 4.46% and the viability, T/C [27] was 5.38%. The viability, T/C [28] was 4.48%, the viability, T/C [29] was 5.61% and the viability, T/C [30] was 4.44%. For the same compound, the viability, T/C [31] was 4.32%, the viability, T/C [32] was 4.75% and the viability, T/C [33] was 4.71%. For the same compound, the viability, T/C [34] was 4.66%, the viability, T/C [35] was 4.72% and the viability, T/C [36] was 5.12%.
